US20100210596A1, “USE OF AMINOPYRIMIDINE COMPOUNDS IN THE TREATMENT OF IMMUNE DISORDERS” (priority 2006, published 2010)

Tests used:
[1] = test system: NOD mice; test: Treatment of new onset diabetic NOD mice with Gleevec (remission of diabetes, blood glucose); assay type: in vivo, mouse
Protocol: NOD mice were treated by gavage (oral) daily (M-F) with 50 mg/kg of commercially-available Gleevec suspended in peanut oil. Treatment was initiated at the time of disease onset (blood sugars above 250 mg/dl) and continued for the duration of the experiment.
(§1) Further studies were carried out to determine if Gleevec could be discontinued and maintain its efficacy. New onset mice were treated as above for only 3 weeks after onset and examined for disease recurrence (FIG. 1B). […] of mice (7/8) went into remission during the 3 weeks of therapy. For the majority of mice, remission was short lived as 5/8 mice (FIG. 1B, solid circles) became hyperglycemic within 1-2 weeks after cessation of drug therapy. However, 3/8 mice (FIG. 1B, open circles) remained in remission more than 6 weeks after the last dose of Gleevec. […] Ten week old NOD mice were treated daily with Gleevec ([…]) or peanut oil and followed for disease incidence. None of the Gleevec-treated and 50% of the peanut oil-treated mice were diabetic at 18 weeks of age.
Diabetic NOD mice (250-350 mg/dL) were treated with Gleevec for a short course (3 weeks) or longer courses (8-10 weeks) daily 3 times per week (3×/wk); and blood glucose assessed as described in Example 2. […] The majority of the daily, 8-10 week-treated group remained normal glycemic for >2 months after ending therapy. Peanut oil treatment had no effect in reversing diabetes.
In another dosing regimen, NOD mice were treated with Gleevec (100 mg/kg) by daily oral gavage Monday through Friday for 2 weeks, followed by daily Gleevec (100 mg/kg) via oral gavage three times per week for 6 weeks. Four of 5 mice went into disease remission.

[2] = test system: NOD mice; test: Gleevec prevention studies in pre-diabetic NOD mice (diabetes incidence by blood glucose); assay type: in vivo, mouse
Protocol: as §1
Pre-diabetic NOD mice were treated with Gleevec for 7 weeks starting at 12 weeks of age. The Gleevec was emulsified in peanut oil and given by gavage (100 mg/kg) daily. Control animals were treated with peanut oil alone. Mice were tested for diabetes based on blood glucose. Mice with two consecutive glucose readings of greater than 250 mg/dl were considered diabetic.

[3] = test system: NOD mice injected with cyclophosphamide (CY); test: Cyclophosphamide model: diabetes incidence in CY-injected NOD mice; assay type: in vivo; conditions: 14.5 week-old NOD mice, CY 300 mg/kg i.p., Gleevec 1.5 mg/mouse/day oral for 7 weeks; FIG. 3
Protocol: 14.5 week-old NOD mice were injected intraperitoneally (i.p.) with cyclophosphamide (CY) (300 mg/kg) in conjunction with daily oral Gleevec therapy or control peanut oil. Gleevec treatment (1.5 mg/mouse/day) lasted 7 weeks. Mice were tested for diabetes based on blood glucose. Mice with two consecutive glucose readings of greater than 250 mg/dl were considered diabetic.

[4] = 100 mg/kg oral gavage daily Monday-Friday for 2 weeks, then 100 mg/kg three times per week for 6 weeks
[5] = new onset mice, 50 mg/kg oral daily for only 3 weeks after onset, FIG. 1B

SMILES: CS(=O)(=O)O.Cc1ccc(NC(=O)c2ccc(CN3CCN(C)CC3)cc2)cc1Nc1nccc(-c2cccnc2)n1 [Gleevec]
- mice going into remission ([1]; 50 mg/kg oral gavage daily (M-F) in peanut oil, started at disease onset (blood sugars above 250 mg/dl), continued for duration of experiment, FIG. 1A): All of the treated mice went into remission
- relapse during the course of the study ([1]; 50 mg/kg oral gavage daily (M-F), continuous treatment from onset, FIG. 1A): none relapsed
- mice that maintained normoglycemia for the duration of the experiment (>30 weeks after onset) [1, 4]: Three of the 5
- mice that went into disease remission (number of total) [1, 4]: Four of 5
- mice that remained in remission more than 6 weeks after the last dose (number/total) ([1]; 3-week treatment, FIG. 1B open circles): 3/8
- mice that became hyperglycemic within 1-2 weeks after cessation of drug therapy (number/total) ([1]; 3-week treatment, FIG. 1B solid circles): 5/8
- blood glucose levels maintained in treated mice ([1]; NOD mice treated with Gleevec after onset): approximately 200 mg/dl
- time the majority of the group remained normal glycemic after ending therapy ([1]; daily, 8-10 week-treated group): > 2 months
- reversal of diabetes ([1]; diabetic NOD mice (250-350 mg/dL), all treatments: 3 weeks or 8-10 weeks, daily or 3x/wk): effective in reversing diabetes in the majority of mice
- mice that went into remission during the 3 weeks of therapy (number/total) [1, 5]: 7/8
- percent of mice that went into remission during the 3 weeks of therapy [1, 5]: Greater than 90%
- long term maintenance (>20 week) of normoglycemia ([1]; short course 3 weeks versus long course 8-10 weeks): less evident in short term 3 week treatment) than long term 8-10 week treated mice
- percent of mice in which diabetes was prevented ([2]; pre-diabetic NOD mice, 100 mg/kg gavage daily for 7 weeks starting at 12 weeks of age, diabetic = two consecutive glucose readings >250 mg/dl, FIG. 2): 90%
- mice diabetic at 18 weeks of age ([2]; ten week old NOD mice treated daily (50 mg/ml as printed), preliminary experiments): None
- incidence of diabetes versus peanut oil-treated CY-treated control [3]: significantly reduced
